Test results published in patent publication US20250388575A1, “HETEROBIFUNCTIONAL COMPOUNDS AND METHODS OF TREATING DISEASE” (Halda Therapeutics OpCo, Inc., priority 2022, published 2025).
Where two headings read alike, the source gives them in different places.

How the values were obtained:
T47D cells = assay: Cellular growth inhibition assay for T47D cells, CellTiter-Glo; type: cell-based, human; details: 72 hours treatment, CellTiter-Glo 2.0
Experimental: T47D cells were purchased from American Type Cell Culture (ATCC Cat #HTB-133) and then seeded on poly-D-lysine coated, black clear-bottom 384-well plates at 3000/well in 25 μL Dulbecco's Modified Eagle Medium (DMEM) supplemented with 10% w/w Fetal bovine serum (FBS), 0.2 units/mL recombinant human insulin (Gibco Cat #12585014), and 1% w/w Pen-Strep. Pen-Strep is a commercially available mixture of penicillin G and streptomycin, which is used in mammalian cell culture media to prevent bacterial contamination. Dulbecco's Modified Eagle Medium (DMEM) supplemented with 10% w/w fetal bovine serum (FBS), 0.2 units/mL recombinant human insulin, and 1% w/w Pen-Strep is herein referred to as Treatment Medium. Following seeding of cells in the plates, the plates were spun at 300×g for 30 seconds, then equilibrated to room temperature for 30 minutes, and then deposited in a humidified tissue culture incubator maintained at 37° C. with 5% CO2.
At 24 hours after seeding of the cells, dilutions of test compound were prepared in DMSO and dissolved in Treatment Medium, to achieve a final DMSO concentration of 0.5% w/w, thereby providing the Test Compound Solution. A 25 μL aliquot of the Test Compound Solution was added to cells in the well plates. An equal volume of a solution containing DMSO and Treatment Medium was used as a negative control. Following treatment of cells with Test Compound Solution or said equal volume of a solution containing DMSO and Treatment Medium, the plates were spun at 300×g for 30 seconds, and then left in an incubator for 72 hours.
At the end of the treatment duration, cell viability was quantified with CellTiter-Glo 2.0 reagent (Promega Cat #G9243). For this purpose, plates were equilibrated to room temperature for 30 minutes, and then 25 μL of CellTiter-Glo 2.0 reagent was added to cells in the plate wells. Plates were then agitated on a shaker for two minutes at 500 rpm and subsequently incubated at room temperature for 10 minutes. Following incubation, the plates were spun at 3000×g for 30 seconds, then sealed with an optical adhesive cover, and luminescence readings were measured with an EnVision Plate Reader (Perkin Elmer).
Data was normalized using zero luminescence for baseline. A four-parameter non-linear regression curve fit was applied to dose-response data in GraphPad Prism data analysis software to determine the half-maximal growth inhibitory concentration (GI50) for each test compound.

[1] = tested on: T-Rex 293 cell line SC3 cells lacking increased expression of androgen receptor protein; assay: Cellular growth inhibition, T-Rex 293 SC3 cells lacking increased androgen receptor expression (no doxycycline), CellTiter-Glo; type: cell-based; details: T-Rex 293 SC3 cells lacking increased androgen receptor expression (not exposed to doxycycline), 72 hours, CellTiter-Glo; read-out: GI50
Outline: (§1)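 SC3, a T-Rex 293 clone with doxycycline-inducible wild-type androgen receptor, was seeded in phenol red-free DMEM with 10% charcoal-dextran FBS, with or without 10 ng/mL doxycycline. Compound added at 24 h (0.5% DMSO) for 72 h at 37° C. CellTiter-Glo 2.0 luminescence; GI50 from four-parameter fit.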

VCaP cells = assay: Cellular growth inhibition assay for VCaP cells, CellTiter-Glo; type: cell-based, human; details: VCaP cells, 72 hours, CellTiter-Glo, read-out: GI50
Outline: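 GI50 values come from four-parameter curve fits of luminescence data normalized to a zero baseline. Compound, in medium with 0.5% DMSO, was added one day after plating and left for 72 h before CellTiter-Glo 2.0 addition.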

[2] = tested on: T-Rex 293 cell line SC3 cells having increased expression of androgen receptor protein; assay: Cellular growth inhibition, T-Rex 293 SC3 cells with increased androgen receptor expression (doxycycline), CellTiter-Glo; type: cell-based; details: T-Rex 293 SC3 cells with increased androgen receptor expression (exposed to 10 ng/mL doxycycline), 72 hours, CellTiter-Glo; read-out: GI50
Outline: as §1

Row | Structure (SMILES) | GI50 (T47D cells) [nM] | GI50 [1] [nM] | GI50 (VCaP cells) [nM] | GI50 [2] [nM] | GI50 (T47D cells; Homo sapiens) [nM] | GI50 (VCaP cells; Homo sapiens) [nM]
1 | CCS(=O)(=O)c1ccc(Oc2cc(F)c(CCC3CCN(c4ccc(C(=O)N[C@H]5CC[C@H](Oc6ccc(C#N)c(Cl)c6)CC5)nn4)CC3)c(F)c2)c(-c2cn(C)c(=O)c3[nH]ccc23)c1 [I-49] | 1500 to 3000 | < 500 | < 500 | < 500 | – | –
2 | CCS(=O)(=O)c1ccc(Oc2c(F)cc(CCC3CCN(c4ccc(C(=O)N[C@H]5CC[C@H](Oc6ccc(C#N)c(Cl)c6)CC5)nn4)CC3)cc2F)c(-c2cn(C)c(=O)c3[nH]ccc23)c1 [I-58] | < 500 | > 3000 | < 500 | < 500 | – | –
3 | CCS(=O)(=O)c1ccc(Oc2ccc(C3CC4(CCN(c5ccc(C(=O)N[C@H]6CC[C@H](Oc7ccc(C#N)c(Cl)c7)CC6)nn5)CC4)C3)cc2)c(-c2cn(C)c(=O)c3[nH]ccc23)c1 [I-60] | < 500 | < 500 | < 500 | < 500 | – | –
4 | CCS(=O)(=O)c1ccc(Oc2ccc(CCCC3CCN(c4ccc(C(=O)N[C@H]5CC[C@H](Oc6ccc(C#N)c(Cl)c6)CC5)nn4)CC3)cc2)c(-c2cn(C)c(=O)c3[nH]ccc23)c1 [I-61] | – | < 500 | – | < 500 | < 500 | < 500
5 | CCS(=O)(=O)c1ccc(Oc2cccc(CCCC3CCN(c4ncc(C(=O)N[C@H]5CC[C@H](Oc6ccc(C#N)c(Cl)c6)CC5)cn4)CC3)c2)c(-c2cn(C)c(=O)c3[nH]ccc23)c1 [I-66] | < 500 | < 500 | < 500 | < 500 | – | –
6 | CCS(=O)(=O)c1ccc(Oc2ccc(CCC3CC4(C3)CN(c3ccc(C(=O)N[C@H]5CC[C@H](Oc6ccc(C#N)c(Cl)c6)CC5)nn3)C4)cc2)c(-c2cn(C)c(=O)c3[nH]ccc23)c1 [I-67] | < 500 | < 500 | < 500 | < 500 | – | –
7 | CCS(=O)(=O)c1ccc(Oc2ccc(CCCC3CN(c4ccc(C(=O)N[C@H]5CC[C@H](Oc6ccc(C#N)c(Cl)c6)CC5)nn4)C3)cc2)c(-c2cn(C)c(=O)c3[nH]ccc23)c1 [I-68] | < 500 | < 500 | < 500 | < 500 | – | –
8 | CCS(=O)(=O)c1ccc(Oc2ccc(CC3CC4(C3)CN(c3ccc(C(=O)N[C@H]5CC[C@H](Oc6ccc(C#N)c(Cl)c6)CC5)nn3)C4)cc2)c(-c2cn(C)c(=O)c3[nH]ccc23)c1 [I-69] | – | < 500 | – | < 500 | < 500 | < 500
9 | CCS(=O)(=O)c1ccc(Oc2ccc(CCC3C4CN(c5ccc(C(=O)N[C@H]6CC[C@H](Oc7ccc(C#N)c(Cl)c7)CC6)nn5)CC34)cc2)c(-c2cn(C)c(=O)c3[nH]ccc23)c1 (some centres unmarked) [I-70] | < 500 | < 500 | < 500 | < 500 | – | –
10 | CCS(=O)(=O)c1ccc(Oc2ccc(CCCC3C4CN(c5ccc(C(=O)N[C@H]6CC[C@H](Oc7ccc(C#N)c(Cl)c7)CC6)nn5)CC34)cc2)c(-c2cn(C)c(=O)c3[nH]ccc23)c1 (some centres unmarked) [I-71] | – | < 500 | – | < 500 | < 500 | < 500
11 | CCS(=O)(=O)c1ccc(Oc2ccc(CCC3CN(c4ccc(C(=O)N[C@H]5CC[C@H](Oc6ccc(C#N)c(Cl)c6)CC5)nn4)C3)cc2)c(-c2cn(C)c(=O)c3[nH]ccc23)c1 [I-72] | < 500 | < 500 | < 500 | < 500 | – | –
12 | CCS(=O)(=O)c1ccc(Oc2ccc(CCCCC3CN(c4ccc(C(=O)N[C@H]5CC[C@H](Oc6ccc(C#N)c(Cl)c6)CC5)nn4)C3)cc2)c(-c2cn(C)c(=O)c3[nH]ccc23)c1 [I-73] | < 500 | < 500 | < 500 | < 500 | – | –
13 | CCS(=O)(=O)c1ccc(Oc2ccc(CN3CC4(C3)CN(c3ccc(C(=O)N[C@H]5CC[C@H](Oc6ccc(C#N)c(Cl)c6)CC5)nn3)C4)c(F)c2)c(-c2cn(C)c(=O)c3[nH]ccc23)c1 [I-74] | – | < 500 | – | < 500 | < 500 | < 500
14 | CCS(=O)(=O)c1ccc(Oc2ccc(CN3CCC4(CCN(c5ccc(C(=O)N[C@H]6CC[C@H](Oc7ccc(C#N)c(Cl)c7)CC6)nn5)C4)C3)c(F)c2)c(-c2cn(C)c(=O)c3[nH]ccc23)c1 (some centres unmarked) [I-75] | – | < 500 | – | < 500 | < 500 | < 500
15 | Cn1cc(-c2cc(S(=O)(=O)C3CC3)ccc2Oc2ccc(CCC3CCN(c4ccc(C(=O)N[C@H]5CC[C@H](Oc6ccc(C#N)c(Cl)c6)CC5)nn4)CC3)cc2)c2cc[nH]c2c1=O [I-76] | < 500 | < 500 | < 500 | < 500 | – | –
16 | CCS(=O)(=O)c1ccc(Oc2ccc(CC3CN(c4ccc(C(=O)N[C@H]5CC[C@H](Oc6ccc(C#N)c(Cl)c6)CC5)nn4)C3)cc2)c(-c2cn(C)c(=O)c3[nH]ccc23)c1 [I-77] | – | < 500 | – | < 500 | < 500 | < 500
17 | CCS(=O)(=O)c1ccc(Oc2ccc(CN3CC4(CCN(c5ccc(C(=O)N[C@H]6CC[C@H](Oc7ccc(C#N)c(Cl)c7)CC6)nn5)CC4)C3)c(F)c2)c(-c2cn(C)c(=O)c3[nH]ccc23)c1 [I-78] | – | < 500 | – | < 500 | < 500 | < 500
18 | CCS(=O)(=O)c1ccc(Oc2ccc(CCC3CCN(c4ccc(C(=O)N[C@H]5CC[C@H](Oc6ccc(C#N)c(Cl)c6)CC5)nn4)CC3)c(C#N)c2)c(-c2cn(C)c(=O)c3[nH]ccc23)c1 [I-79] | 500 to 1500 | > 3000 | < 500 | < 500 | – | –
19 | CCS(=O)(=O)c1ccc(Oc2ccc(CC3CCN(c4ccc(C(=O)N[C@H]5CC[C@H](Oc6ccc(C#N)c(Cl)c6)CC5)nn4)CC3)c(F)c2)c(-c2cn(C)c(=O)c3[nH]ccc23)c1 [I-80] | – | < 500 | – | < 500 | < 500 | < 500
20 | CCS(=O)(=O)c1ccc(Oc2ccc(CC3CC4(CCN(c5ccc(C(=O)N[C@H]6CC[C@H](Oc7ccc(C#N)c(Cl)c7)CC6)nn5)CC4)C3)c(F)c2)c(-c2cn(C)c(=O)c3[nH]ccc23)c1 [I-81] | – | < 500 | – | < 500 | < 500 | < 500
21 | CCS(=O)(=O)c1ccc(Oc2ccc(CCC3CCN(c4ccc(C(=O)N[C@H]5CC[C@H](Oc6ccc(C#N)c(Cl)c6)CC5)nn4)CC3)c(OC)c2)c(-c2cn(C)c(=O)c3[nH]ccc23)c1 [I-82] | < 500 | < 500 | < 500 | < 500 | – | –
22 | CCS(=O)(=O)c1ccc(Oc2ccc(CCC3CCN(c4ccc(C(=O)N[C@H]5CC[C@H](Oc6ccc(C#N)c(Cl)c6)CC5)nn4)CC3)c(Cl)c2)c(-c2cn(C)c(=O)c3[nH]ccc23)c1 [I-84] | < 500 | > 3000 | < 500 | < 500 | – | –
23 | CCS(=O)(=O)c1ccc(Oc2ccc(CCC3CCN(c4ccc(C(=O)N[C@H]5CC[C@H](Oc6ccc(C#N)c(Cl)c6)CC5)nn4)CC3)c(C(F)(F)F)c2)c(-c2cn(C)c(=O)c3[nH]ccc23)c1 [I-85] | < 500 | < 500 | < 500 | < 500 | – | –
24 | CCS(=O)(=O)c1ccc(Oc2ccc(CC3CC4(CCN(c5ccc(C(=O)N[C@H]6CC[C@H](Oc7ccc(C#N)c(Cl)c7)CC6)nn5)CC4)C3)cc2)c(-c2cn(C)c(=O)c3[nH]ccc23)c1 [I-86] | – | < 500 | – | < 500 | < 500 | < 500
25 | C=CC1CN(c2ccc(C(=O)N[C@H]3CC[C@H](Oc4ccc(C#N)c(Cl)c4)CC3)nn2)CC1c1ccc(Oc2ccc(S(=O)(=O)CC)cc2-c2cn(C)c(=O)c3[nH]ccc23)cc1 (some centres unmarked) [I-87] | < 500 | 500 to 1500 | < 500 | < 500 | – | –
26 | CCS(=O)(=O)c1ccc(Oc2ccc(C(C)(C)N3CC4(CN(c5ccc(C(=O)N[C@H]6CC[C@H](Oc7ccc(C#N)c(Cl)c7)CC6)nn5)C4)C3)cc2)c(-c2cn(C)c(=O)c3[nH]ccc23)c1 [I-88] | – | < 500 | – | < 500 | < 500 | < 500
